Assay results as given in article PMC5539068, “Structural optimization and evaluation of novel 2-pyrrolidone-fused (2-oxoindolin-3-ylidene)methylpyrrole derivatives as potential VEGFR-2/PDGFRβ inhibitors” (Chemistry Central Journal, 2017).

Columns and labels:
[1] = Preliminary pharmacokinetic studies; details: no data shown
[2] = biological target: VEGFR-2 (Homo sapiens, UniProt P35968); assay: In-vitro kinase assay (HotSpot, 33P), VEGFR-2; details: for inhibition at 0.08 µM: read-out: % inhibition of VEGFR-2 at 80 nM
Protocol: Next, the VEGFR-2 phosphorylation inhibitory activities of the newly synthesized compounds were evaluated.
(§1) Briefly, specific kinase and substrate and required cofactors were prepared in reaction buffer. Test compounds were added to the reaction and after 20 min a mixture of ATP (Sigma, St. Louis MO, USA) and ^33P ATP (Perkin Elmer, Waltham MA, USA) was added to make a final concentration of 10.0 μM. Reactions were stood at room temperature for 120 min, and then the reactions were spotted onto a P81 ion exchange filter paper (Whatman Inc., Piscataway, NJ, USA). Unbound phosphate was removed by extensive washing of filters in 0.1% phosphoric acid. Kinase activity data was reported as the percent remaining kinase activity in test compounds compared to the solvent control dimethyl sulfoxide (DMSO).

[3] = system: 786-O cells; assay: Cell proliferation assay (MTT), 786-O; details: Homo sapiens, 786-0, 72 h, read-out: IC50 786-O
Protocol: (§2) Serial dilutions of indicated compounds were added and incubated for additional 72 h. At the end of the incubation, cell viability was determined by the 3-(4,5-dimethylthiazol-2-yl)-2,5-diphenyl tetrazolium bromide (MTT) assay. The MTT formazan crystals formed were dissolved in DMSO, and the absorbance at 570 nm was recorded using a microplate spectrophotometer (Thermo Fisher Scientific, Waltham, MA, USA) [46].

[4] = biological target: PDGFRβ (Homo sapiens, UniProt P09619); assay: In-vitro kinase assay (HotSpot, 33P), PDGFRβ
[5] = system: HCT116 cells; assay: Cell cycle analysis by image cytometry (DAPI); details: 3.0 μM, 24 h; preliminary
Protocol: Cell cycle profiles of HCT116 cells were determined with an NC-3000 image cytometer (ChemoMetec, Allerod, Denmark) in accordance with manufacturer’s protocol. Briefly, cells were seeded at 200,000 cells/well on a 6-well plate for 24 h. […] After incubation for 24 h, 100,000 cells were harvested and centrifuged at 400 g at room temperature for 5 min, washed once with PBS (50 μM), and resuspended in lysis buffer (50 μl) (ChemoMetec, Allerod, Denmark) containing 10 μg/ml of 2-(4-amidinophenyl)-1H-indole-6-carboxamidine (DAPI, ChemoMetec, Allerod, Denmark). […] The cellular fluorescence was measured with an NC-3000 image cytometer using NC-SlideA8 (ChemoMetec, Allerod, Denmark). The NC-3000 software (ChemoMetec, Allerod, Denmark) was used for image acquisition, image analysis and quantification, and data visualization.

[6] = biological target: T1, Aurora A (Homo sapiens, UniProt O14965); assay: In-vitro kinase assay (HotSpot, 33P), Aurora A; details: ATP 10.0 μM; for inhibition at 1 µM: read-out: % inhibition of Aurora A at 1.0 μM, 1.0 μM compound
T1 sequence (O14965 1-403): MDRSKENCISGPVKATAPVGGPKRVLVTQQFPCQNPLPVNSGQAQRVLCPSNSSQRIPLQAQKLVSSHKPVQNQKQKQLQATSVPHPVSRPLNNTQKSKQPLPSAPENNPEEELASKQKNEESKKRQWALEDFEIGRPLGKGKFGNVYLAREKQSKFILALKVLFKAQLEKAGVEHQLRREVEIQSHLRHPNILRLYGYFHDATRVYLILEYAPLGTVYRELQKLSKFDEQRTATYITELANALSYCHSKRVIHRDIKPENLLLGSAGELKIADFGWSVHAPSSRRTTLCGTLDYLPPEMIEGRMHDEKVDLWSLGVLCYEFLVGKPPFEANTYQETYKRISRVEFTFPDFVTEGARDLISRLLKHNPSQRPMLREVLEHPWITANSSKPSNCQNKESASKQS
Protocol: as §1

[7] = system: Detroit 551 cells; assay: Cell proliferation assay (MTT), normal fibroblast Detroit 551; details: Homo sapiens, Detroit 551, 72 h, read-out: IC50 Detroit 551
Protocol: as §2

[8] = system: HUVEC cells; assay: In-vitro VEGF-induced Matrigel tube formation assay; assay type: cell-based, human; details: for IC50: Homo sapiens, HUVEC, VEGF 10 ng/ml, Matrigel, 6 h, read-out: IC50 Area (in vitro tube formation)
Protocol: The in vitro tube formation assay was assessed using ibidi μ-Slides (15-well, ibidi GmbH, Martinsried, Germany) in accordance with manufacturer’s protocol. Briefly, growth factor reduced Matrigel (10 μl) (Sigma, St. Louis MO) was added to the inner well of ibidi μ-Slides, and incubated at 37 °C for 1 h. […] 10,000 HUVEC cells in 50 μl of above growth medium was added to Matrigel (Sigma, St. Louis MO, USA) coated ibidi μ-Slides. After 6 h of incubation at 37 °C, the supernatant was discarded, and 50 μl of serum-free medium with diluted calcein AM (6.25 μg/ml) was added to above ibidi μ-Slides. After incubation in the dark at room temperature for 30 min, the μ-Slides were washed with PBS (50 μl) and fluorescence pictures were taken at 485 nm with a Leica DM1000 LED microscope (Leica Microsystems, Wetzlar, Hessen, Germany).

[9] = system: HCT116 cells; assay: Cell proliferation assay (MTT), HCT116; details: Homo sapiens, HCT-116, 72 h, read-out: IC50 HCT116
Protocol: as §2

[10] = system: NCI-H460 cells; assay: Cell proliferation assay (MTT), NCI-H460; details: Homo sapiens, NCI-H460, 72 h, read-out: IC50 NCI-H460
Protocol: as §2

[11] = system: HCT116 cells; details: VEGFR-1/2 inhibitor; cited from earlier work
[12] = system: patients with advanced colorectal cancer; set-up: method as in earlier work; details: Phase IIb, cited from earlier work

Sequence of VEGFR-2 (P35968 20-1356): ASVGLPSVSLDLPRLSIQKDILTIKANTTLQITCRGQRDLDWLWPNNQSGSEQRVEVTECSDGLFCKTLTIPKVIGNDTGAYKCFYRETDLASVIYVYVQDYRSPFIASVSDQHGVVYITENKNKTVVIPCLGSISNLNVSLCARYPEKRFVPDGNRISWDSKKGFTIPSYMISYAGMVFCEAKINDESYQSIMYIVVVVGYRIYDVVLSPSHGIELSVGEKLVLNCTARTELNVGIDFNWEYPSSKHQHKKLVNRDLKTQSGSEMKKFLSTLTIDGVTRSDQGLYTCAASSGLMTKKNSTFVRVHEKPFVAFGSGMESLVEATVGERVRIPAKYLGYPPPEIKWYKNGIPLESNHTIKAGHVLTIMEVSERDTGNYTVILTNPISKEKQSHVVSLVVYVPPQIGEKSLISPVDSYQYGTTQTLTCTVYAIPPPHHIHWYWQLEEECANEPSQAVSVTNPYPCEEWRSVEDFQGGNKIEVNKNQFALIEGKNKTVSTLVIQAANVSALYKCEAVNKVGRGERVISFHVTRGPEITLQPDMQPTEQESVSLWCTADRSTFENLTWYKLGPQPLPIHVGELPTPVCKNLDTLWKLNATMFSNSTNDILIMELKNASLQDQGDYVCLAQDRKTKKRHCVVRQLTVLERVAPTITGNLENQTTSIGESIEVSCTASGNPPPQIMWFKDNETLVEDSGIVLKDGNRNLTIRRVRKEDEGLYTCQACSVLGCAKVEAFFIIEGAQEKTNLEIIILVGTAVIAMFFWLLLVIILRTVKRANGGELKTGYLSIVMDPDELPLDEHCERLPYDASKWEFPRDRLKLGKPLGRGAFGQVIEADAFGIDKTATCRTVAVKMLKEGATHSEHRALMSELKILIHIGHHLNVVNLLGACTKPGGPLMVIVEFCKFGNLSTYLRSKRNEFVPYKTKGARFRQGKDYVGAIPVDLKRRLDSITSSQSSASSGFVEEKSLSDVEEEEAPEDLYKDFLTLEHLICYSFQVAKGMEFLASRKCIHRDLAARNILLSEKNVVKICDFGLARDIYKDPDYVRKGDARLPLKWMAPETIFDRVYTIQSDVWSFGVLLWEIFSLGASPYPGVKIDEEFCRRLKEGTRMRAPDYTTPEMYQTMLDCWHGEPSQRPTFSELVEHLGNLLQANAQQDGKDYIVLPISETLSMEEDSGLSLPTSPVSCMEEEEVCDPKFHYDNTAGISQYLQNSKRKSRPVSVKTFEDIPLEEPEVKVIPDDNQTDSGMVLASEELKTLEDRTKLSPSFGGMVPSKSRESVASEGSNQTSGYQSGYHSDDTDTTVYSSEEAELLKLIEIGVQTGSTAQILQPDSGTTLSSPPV
Sequence of PDGFRβ (P09619 33-1106): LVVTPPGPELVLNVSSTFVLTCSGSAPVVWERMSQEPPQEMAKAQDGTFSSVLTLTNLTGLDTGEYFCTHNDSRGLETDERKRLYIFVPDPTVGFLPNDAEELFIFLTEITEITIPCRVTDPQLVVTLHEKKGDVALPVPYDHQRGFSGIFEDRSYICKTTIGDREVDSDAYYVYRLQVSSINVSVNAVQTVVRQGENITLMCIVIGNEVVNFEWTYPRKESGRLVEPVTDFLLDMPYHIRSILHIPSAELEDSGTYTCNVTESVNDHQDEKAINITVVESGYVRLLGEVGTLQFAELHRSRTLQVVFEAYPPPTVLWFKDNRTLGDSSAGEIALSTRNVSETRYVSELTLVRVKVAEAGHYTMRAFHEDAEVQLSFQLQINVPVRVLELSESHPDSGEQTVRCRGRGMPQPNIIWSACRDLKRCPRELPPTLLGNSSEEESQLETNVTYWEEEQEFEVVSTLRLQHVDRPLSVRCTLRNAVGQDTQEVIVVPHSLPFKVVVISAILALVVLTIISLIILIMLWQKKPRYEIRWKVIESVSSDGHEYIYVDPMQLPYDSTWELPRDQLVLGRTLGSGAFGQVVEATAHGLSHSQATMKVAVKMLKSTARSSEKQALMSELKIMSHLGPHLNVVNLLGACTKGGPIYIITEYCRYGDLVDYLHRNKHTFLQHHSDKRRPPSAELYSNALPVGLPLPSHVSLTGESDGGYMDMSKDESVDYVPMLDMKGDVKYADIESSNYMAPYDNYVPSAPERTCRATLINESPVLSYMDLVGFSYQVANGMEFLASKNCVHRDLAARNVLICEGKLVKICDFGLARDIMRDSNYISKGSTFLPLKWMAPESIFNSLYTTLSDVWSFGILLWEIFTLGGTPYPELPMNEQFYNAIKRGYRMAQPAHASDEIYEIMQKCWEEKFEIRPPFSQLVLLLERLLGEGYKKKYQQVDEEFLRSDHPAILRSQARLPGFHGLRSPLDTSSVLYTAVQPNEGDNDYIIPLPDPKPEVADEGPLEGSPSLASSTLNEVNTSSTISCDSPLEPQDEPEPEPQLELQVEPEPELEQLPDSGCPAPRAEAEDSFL

SMILES | preliminary results in pharmacokinetic studies [1] | IC50 [2] [nM] | inhibition at 0.08 µM [2] [%] | IC50 [3] [nM] | IC50 [4] [nM] | cell cycle profile effect [5] | inhibition at 1 µM [6] [%] | IC50 [7] [nM] | IC50 [8] [nM] | potency in inhibiting in vitro tube formation relative to sunitinib in terms of IC50 ([8]; versus sunitinib) | melting point [°C] | IC50 [9] [nM] | IC50 [10] [nM] | % inhibition of Aurora A at 1.0 μM ([6]; 1.0 μM compound) [%] | proliferation of HCT116 cells [11] | progression free survival (PFS) ([12]; compared to placebo) | toxicity [12]
CCN(CC)CCN1Cc2[nH]c(/C=C3\C(=O)Nc4ccc(O)cc43)c(C)c2C1=O [Compound 14, (Z)-3-((5-(2-(diethylamino)ethyl)-3-methyl-4-oxo-1,4,5,6-tetrahydropyrrolo[3,4-b]pyrrol-2-yl)methylene)-5-hydroxyindolin-2-one] | satisfactory | 25.9 | 58 | > 10000 | 28.5 | G0/G1 cell cycle arrest | 93.6 | > 10000 | 620 ± 70 | roughly 2.5 fold | 240 to 242 | 2830 ± 400 | > 10000 |  |  |  | 
CCN(CC)CCN1Cc2[nH]c(/C=C3\C(=O)Nc4ccc(S)cc43)c(C)c2C1=O [Compound 15, (Z)-3-((5-(2-(diethylamino)ethyl)-3-methyl-4-oxo-1,4,5,6-tetrahydropyrrolo[3,4-b]pyrrol-2-yl)methylene)-5-mercaptoindolin-2-one] | satisfactory | 14.6 | 57 | > 10000 | 12.1 | increase in tetraploid cells | 93.6 | > 10000 | 530 ± 110 |  | 257 to 260 | 2340 ± 200 | > 10000 | 96.4 |  |  | 
O=C(Nc1cccc(C(F)(F)F)c1)c1ccccc1NCc1ccncc1 [AAL993] |  |  |  |  |  |  |  |  |  |  |  |  |  |  | significantly decreases proliferation |  | 
CCN(CC)CCN1CCc2[nH]c(/C=C3\C(=O)Nc4ccc(F)cc43)c(C)c2C1=O [famitinib] |  |  |  |  |  |  |  |  |  |  |  |  |  |  |  | significantly improved progression free survival (PFS) | manageable
